Reference: PubChem BioAssay (NCI)
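Following 48 hours of exposure in 96-well plates, responses at five concentrations were used to interpolate endpoints linearly. TGI: total growth inhibition.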

Legend:
Assay in all cases: NCI anticancer screen, dose series, 48 h
NCI/ADR-RES ovarian = tested on: NCI/ADR-RES ovarian
COLO 205 colon = tested on: COLO 205 colon
786-0 renal = tested on: 786-0 renal
UACC-62 melanoma = tested on: UACC-62 melanoma
HS 578T breast = tested on: HS 578T breast
HCT-116 colon = tested on: HCT-116 colon
NCI-H460 lung = tested on: NCI-H460 lung
SF-268 CNS = tested on: SF-268 CNS
MCF7 breast = tested on: MCF7 breast
DU-145 prostate = tested on: DU-145 prostate
A498 renal = tested on: A498 renal
RPMI-8226 leukemia = tested on: RPMI-8226 leukemia
HOP-62 NSCLC = tested on: HOP-62 NSCLC
MOLT-4 leukemia = tested on: MOLT-4 leukemia
SK-MEL-28 melanoma = tested on: SK-MEL-28 melanoma
HL-60(TB) leukemia = tested on: HL-60(TB) leukemia
BT-549 breast = tested on: BT-549 breast
LOX IMVI melanoma = tested on: LOX IMVI melanoma
UACC-257 melanoma = tested on: UACC-257 melanoma
UO-31 renal = tested on: UO-31 renal
SK-MEL-5 melanoma = tested on: SK-MEL-5 melanoma
MDA-N = tested on: MDA-N
OVCAR-3 ovarian = tested on: OVCAR-3 ovarian
OVCAR-4 ovarian = tested on: OVCAR-4 ovarian
MDA-MB-435 = tested on: MDA-MB-435
RXF 393 renal = tested on: RXF 393 renal
SN12C renal = tested on: SN12C renal
SNB-75 CNS = tested on: SNB-75 CNS
HT29 colon = tested on: HT29 colon
OVCAR-8 ovarian = tested on: OVCAR-8 ovarian
K-562 leukemia = tested on: K-562 leukemia
NCI-H23 lung = tested on: NCI-H23 lung
TK-10 renal = tested on: TK-10 renal
HCT-15 colon = tested on: HCT-15 colon
IGROV1 ovarian = tested on: IGROV1 ovarian
EKVX NSCLC = tested on: EKVX NSCLC
PC-3 prostate = tested on: PC-3 prostate
CAKI-1 renal = tested on: CAKI-1 renal
NCI-H522 lung = tested on: NCI-H522 lung
MDA-MB-231 breast = tested on: MDA-MB-231 breast
NCI-H226 lung = tested on: NCI-H226 lung
HCC-2998 colon = tested on: HCC-2998 colon
OVCAR-5 ovarian = tested on: OVCAR-5 ovarian
SNB-19 CNS = tested on: SNB-19 CNS
MALME-3M melanoma = tested on: MALME-3M melanoma
SR leukemia = tested on: SR leukemia
KM12 colon = tested on: KM12 colon
U251 CNS = tested on: U251 CNS
T-47D breast = tested on: T-47D breast
ACHN renal = tested on: ACHN renal
SW-620 colon = tested on: SW-620 colon
SF-295 CNS = tested on: SF-295 CNS
SK-MEL-2 melanoma = tested on: SK-MEL-2 melanoma
SF-539 CNS = tested on: SF-539 CNS
M14 melanoma = tested on: M14 melanoma
A549 NSCLC = tested on: A549 NSCLC
CCRF-CEM leukemia = tested on: CCRF-CEM leukemia
SK-OV-3 ovarian = tested on: SK-OV-3 ovarian

`CNC(=S)Nc1sc2c(c1C#N)CCCC2` was tested, and the TGI (NCI/ADR-RES ovarian) was greater than 75 µM, the TGI (COLO 205 colon) was greater than 75 µM and the TGI (786-0 renal) was greater than 75 µM. It also gave a TGI (UACC-62 melanoma) greater than 75 µM, a TGI (HS 578T breast) greater than 75 µM and a TGI (HCT-116 colon) greater than 75 µM. It also gave a TGI (NCI-H460 lung) greater than 75 µM, a TGI (SF-268 CNS) greater than 75 µM and a TGI (MCF7 breast) greater than 75 µM. For the same compound, the TGI (DU-145 prostate) was greater than 75 µM, the TGI (A498 renal) was greater than 75 µM and the TGI (RPMI-8226 leukemia) was greater than 75 µM. The TGI (HOP-62 NSCLC) was greater than 75 µM, the TGI (MOLT-4 leukemia) was greater than 75 µM and the TGI (SK-MEL-28 melanoma) was greater than 75 µM. It also gave a TGI (HL-60(TB) leukemia) greater than 75 µM, a TGI (BT-549 breast) greater than 75 µM and a TGI (LOX IMVI melanoma) greater than 75 µM. The TGI (UACC-257 melanoma) was greater than 75 µM, the TGI (UO-31 renal) was greater than 75 µM and the TGI (SK-MEL-5 melanoma) was greater than 75 µM. The TGI (MDA-N) was greater than 75 µM, the TGI (OVCAR-3 ovarian) was greater than 75 µM and the TGI (OVCAR-4 ovarian) was greater than 75 µM. The TGI (MDA-MB-435) was greater than 75 µM, the TGI (RXF 393 renal) was greater than 75 µM and the TGI (SN12C renal) was greater than 75 µM. It also gave a TGI (SNB-75 CNS) greater than 75 µM, a TGI (HT29 colon) greater than 75 µM and a TGI (OVCAR-8 ovarian) greater than 75 µM. For the same compound, the TGI (K-562 leukemia) was greater than 75 µM, the TGI (NCI-H23 lung) was greater than 75 µM and the TGI (TK-10 renal) was greater than 75 µM. The TGI (HCT-15 colon) was greater than 75 µM, the TGI (IGROV1 ovarian) was greater than 75 µM and the TGI (EKVX NSCLC) was greater than 75 µM. The TGI (PC-3 prostate) was greater than 75 µM, the TGI (CAKI-1 renal) was greater than 75 µM and the TGI (NCI-H522 lung) was greater than 75 µM. For the same compound, the TGI (MDA-MB-231 breast) was greater than 75 µM, the TGI (NCI-H226 lung) was greater than 75 µM and the TGI (HCC-2998 colon) was greater than 75 µM. For the same compound, the TGI (OVCAR-5 ovarian) was greater than 75 µM, the TGI (SNB-19 CNS) was greater than 75 µM and the TGI (MALME-3M melanoma) was greater than 75 µM. It also gave a TGI (SR leukemia) greater than 75 µM, a TGI (KM12 colon) greater than 75 µM and a TGI (U251 CNS) greater than 75 µM. For the same compound, the TGI (T-47D breast) was greater than 75 µM, the TGI (ACHN renal) was greater than 75 µM and the TGI (SW-620 colon) was greater than 75 µM. For the same compound, the TGI (SF-295 CNS) was greater than 75 µM and the TGI (SK-MEL-2 melanoma) was greater than 75 µM.
Compound `O=C1/C(=C/c2cc3c(=O)c4ccccc4sc3s2)NC(=S)N1c1ccccc1` has a TGI (NCI/ADR-RES ovarian) greater than 100 µM, a TGI (COLO 205 colon) greater than 100 µM and a TGI (786-0 renal) greater than 100 µM. For the same compound, the TGI (UACC-62 melanoma) was greater than 100 µM, the TGI (HS 578T breast) was greater than 100 µM and the TGI (HCT-116 colon) was greater than 100 µM. The TGI (NCI-H460 lung) was greater than 100 µM, the TGI (SF-268 CNS) was greater than 100 µM and the TGI (MCF7 breast) was greater than 100 µM. It also gave a TGI (DU-145 prostate) greater than 100 µM, a TGI (A498 renal) greater than 100 µM and a TGI (RPMI-8226 leukemia) greater than 100 µM. For the same compound, the TGI (HOP-62 NSCLC) was greater than 100 µM, the TGI (MOLT-4 leukemia) was greater than 100 µM and the TGI (SK-MEL-28 melanoma) was greater than 100 µM. For the same compound, the TGI (HL-60(TB) leukemia) was 66.9 µM, the TGI (BT-549 breast) was greater than 100 µM and the TGI (LOX IMVI melanoma) was greater than 100 µM. It also gave a TGI (UACC-257 melanoma) greater than 100 µM, a TGI (UO-31 renal) greater than 100 µM and a TGI (SK-MEL-5 melanoma) greater than 100 µM. The TGI (MDA-N) was greater than 100 µM, the TGI (OVCAR-3 ovarian) was greater than 100 µM and the TGI (OVCAR-4 ovarian) was greater than 100 µM. The TGI (MDA-MB-435) was greater than 100 µM, the TGI (RXF 393 renal) was greater than 100 µM and the TGI (SN12C renal) was greater than 100 µM. For the same compound, the TGI (SNB-75 CNS) was greater than 100 µM, the TGI (HT29 colon) was greater than 100 µM and the TGI (OVCAR-8 ovarian) was greater than 100 µM. It also gave a TGI (K-562 leukemia) greater than 100 µM, a TGI (NCI-H23 lung) greater than 100 µM and a TGI (TK-10 renal) greater than 100 µM. It also gave a TGI (HCT-15 colon) greater than 100 µM, a TGI (IGROV1 ovarian) greater than 100 µM and a TGI (EKVX NSCLC) greater than 100 µM. It also gave a TGI (PC-3 prostate) greater than 100 µM, a TGI (CAKI-1 renal) greater than 100 µM and a TGI (NCI-H522 lung) greater than 100 µM. The TGI (MDA-MB-231 breast) was greater than 100 µM, the TGI (NCI-H226 lung) was greater than 100 µM and the TGI (HCC-2998 colon) was greater than 100 µM. It also gave a TGI (OVCAR-5 ovarian) greater than 100 µM, a TGI (SNB-19 CNS) greater than 100 µM and a TGI (MALME-3M melanoma) greater than 100 µM. It also gave a TGI (SR leukemia) of 49.6 µM, a TGI (KM12 colon) greater than 100 µM and a TGI (U251 CNS) greater than 100 µM. It also gave a TGI (T-47D breast) greater than 100 µM, a TGI (ACHN renal) greater than 100 µM and a TGI (SW-620 colon) greater than 100 µM. For the same compound, the TGI (SF-295 CNS) was greater than 100 µM and the TGI (SK-MEL-2 melanoma) was greater than 100 µM.
Compound `CC(C)c1cc(Cl)nc(Cl)n1` has a TGI (NCI/ADR-RES ovarian) greater than 100 µM, a TGI (SF-539 CNS) greater than 100 µM and a TGI (COLO 205 colon) greater than 100 µM. For the same compound, the TGI (786-0 renal) was greater than 100 µM, the TGI (UACC-62 melanoma) was greater than 100 µM and the TGI (HS 578T breast) was greater than 100 µM. The TGI (HCT-116 colon) was greater than 100 µM, the TGI (NCI-H460 lung) was greater than 100 µM and the TGI (SF-268 CNS) was greater than 100 µM. It also gave a TGI (MCF7 breast) greater than 100 µM, a TGI (DU-145 prostate) greater than 100 µM and a TGI (A498 renal) greater than 100 µM. It also gave a TGI (RPMI-8226 leukemia) greater than 100 µM, a TGI (MOLT-4 leukemia) greater than 100 µM and a TGI (SK-MEL-28 melanoma) greater than 100 µM. The TGI (HL-60(TB) leukemia) was greater than 100 µM, the TGI (BT-549 breast) was greater than 100 µM and the TGI (M14 melanoma) was greater than 100 µM. For the same compound, the TGI (LOX IMVI melanoma) was greater than 100 µM, the TGI (UACC-257 melanoma) was greater than 100 µM and the TGI (UO-31 renal) was greater than 100 µM. It also gave a TGI (SK-MEL-5 melanoma) greater than 100 µM, a TGI (A549 NSCLC) greater than 100 µM and a TGI (MDA-N) greater than 100 µM. It also gave a TGI (OVCAR-3 ovarian) greater than 100 µM, a TGI (CCRF-CEM leukemia) greater than 100 µM and a TGI (OVCAR-4 ovarian) greater than 100 µM. It also gave a TGI (MDA-MB-435) greater than 100 µM, a TGI (RXF 393 renal) greater than 100 µM and a TGI (SN12C renal) greater than 100 µM. It also gave a TGI (SNB-75 CNS) greater than 100 µM, a TGI (HT29 colon) greater than 100 µM and a TGI (OVCAR-8 ovarian) greater than 100 µM. For the same compound, the TGI (K-562 leukemia) was greater than 100 µM, the TGI (NCI-H23 lung) was greater than 100 µM and the TGI (SK-OV-3 ovarian) was greater than 100 µM. The TGI (TK-10 renal) was greater than 100 µM, the TGI (HCT-15 colon) was greater than 100 µM and the TGI (IGROV1 ovarian) was greater than 100 µM. The TGI (EKVX NSCLC) was greater than 100 µM, the TGI (PC-3 prostate) was greater than 100 µM and the TGI (CAKI-1 renal) was greater than 100 µM. It also gave a TGI (NCI-H522 lung) greater than 100 µM, a TGI (MDA-MB-231 breast) greater than 100 µM and a TGI (NCI-H226 lung) greater than 100 µM. The TGI (HCC-2998 colon) was greater than 100 µM, the TGI (OVCAR-5 ovarian) was greater than 100 µM and the TGI (SNB-19 CNS) was greater than 100 µM. For the same compound, the TGI (SR leukemia) was greater than 100 µM, the TGI (KM12 colon) was greater than 100 µM and the TGI (U251 CNS) was greater than 100 µM. The TGI (T-47D breast) was greater than 100 µM, the TGI (ACHN renal) was greater than 100 µM and the TGI (SW-620 colon) was greater than 100 µM. For the same compound, the TGI (SF-295 CNS) was greater than 100 µM and the TGI (SK-MEL-2 melanoma) was greater than 100 µM.
